# Article PMC8184781, “A histone H3K4me1-specific binding protein is required for siRNA accumulation and DNA methylation at a subset of loci targeted by RNA-directed DNA methylation” (Nature Communications, 2021)
# What was measured:
# RDM15 Tudor domain [1] = target: T1, RDM15 Tudor domain (Arabidopsis thaliana, UniProt Q8GUP3); assay: Histone peptide array (MODified Histone Peptide Array), GST-fused RDM15; type: binding; conditions: several hundred combinations of histone marks
# T1 construct: hexahistidine-yeast Sumo (cleaved yes); made in house; host or cells: E. coli BL21(DE3)
# T1 sequence (Q8GUP3 599-663): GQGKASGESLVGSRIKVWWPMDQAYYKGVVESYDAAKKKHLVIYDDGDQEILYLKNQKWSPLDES
# Method: Histone peptide array assay was performed using the MODified Histone Peptide Array kit (Active Motif) according to the manufacturer’s instructions. In brief, the slide was first blocked for 2 h at room temperature. After it was washed three times with TBST buffer [10 mM Tris·HCl (pH 7.5), 30 mM NaCl, and 0.05% Tween-20], the slide was incubated overnight with […] of GST-fused purified RDM15 protein at 4 °C in […] of binding buffer [50 mM Hepes (pH 8.0), 150 mM NaCl, 2 mM DTT, and 0.05% Nonidet P-40]. After it was washed three additional times with TBST buffer, the slide was incubated with anti-GST primary antibody at 1/3000 dilution and secondary antibody at 1/5000 dilution in TBST buffer for 1 h at room temperature, respectively. After the washing, the slide was visualized using Lumi-light ECL substrate (Roche). The intensity of the blotted slide was analyzed according to the instructions of the analysis software of the MODified Histone Peptide Array.
# [2] = tested on: mutated RDM15 (W616A/Y623A/D643A/D645A); assay: Co-immunoprecipitation of H3K4me1 with mutated RDM15, western blot; type: binding, Arabidopsis; conditions: mutated RDM15-3xMYC/rdm15-3 plants, anti-MYC IP
# From the text: We expressed the mutated RDM15 (W616A/Y623A/D643A/D645A) incapable of binding to H3K4me1 in rdm15-3 mutant plants, generating mutated RDM15-3xMYC/rdm15-3 plants.
# (§1) H3K4me1 mark. a. Histone peptide array assay showing the binding preference of RDM15 to H3K4me1. Error bar represents s.d. (n=3 independent experiments). Data are presented as mean values +/- SD and the dots are the corresponding data points. b. ITC binding curves between the RDM15 tudor domain and H3K4me1 and H4K20me1 peptides indicate that H3K4me1 is the optimal binding partner for […]
# (§2) The RDM15-3xFLAG/rdm15-3 and mutated
# (§3) RDM15-3xMYC/rdm15-3 plants were used to perform protein immunoprecipitation with anti-FLAG and anti-MYC antibodies, respectively, and then anti-H3K4me1 antibody was used to detect H3K4me1 . d. Methylation specific PCR results showing the methylation levels at several RDM15 -dependent RdDM loci. McrBC, an enzyme cleaving methylated DNA, was used to digest genomic DNA from different pla nts with two biological replicates. Stronger PCR signal represent s lower methylation level. RDM15-3xFLAG rescued the hypomethylation phenotype in rdm15-3, however, the Mutated RDM15-3xMYC didn’t rescue the methylation phenotype .
# We thank the reviewer for their comments. […]
# (§4) Moreover, the H3K4me1 mark has been previously detected by ChIP-seq at whole-genome level in a previous study (Inagaki et al., EMBO J., 2017). […]
# RDM15 Tudor domain [3] = target: T1, RDM15 Tudor domain; assay: Isothermal titration calorimetry (ITC), RDM15 Tudor domain (WT); type: binding; conditions: compared with H3K4me0, H3K4me2 and H3K4me3
# Method: ITC binding was measured using a Microcal PEAQ-ITC instrument (Malvern). The purified proteins were dialyzed against a buffer containing 100 mM NaCl, 20 mM HEPES, pH 7.0, and 2 mM β-mercaptoethanol and were diluted to a concentration of about 0.8–0.12 mM. The peptide was dissolved in the same buffer with a concentration of about 1.0–1.5 mM. All of the titrations were performed at 20 °C. The data were analyzed using the Origin 7.0 program.
# RDM15 = assay: Co-immunoprecipitation of H3K4me1 with wild-type RDM15, western blot; type: binding, Arabidopsis; conditions: wild-type RDM15 (RDM15-3xFLAG/rdm15-3 plants), anti-FLAG IP
# From the text: as §1, §2, §3
# We thank the reviewer for their comments. We will response the comments in the following with our response highlighted in red.
# The authors have fully addressed my concerns.I think this paper meets the standard of a Nature […]
# as §4
structure (smiles),measurement,setting,value
CNCCCC[C@H](NC(=O)[C@@H](NC(=O)[C@H](CCCNC(=N)N)NC(=O)[C@H](C)N)[C@@H](C)O)C(=O)N[C@@H](CCC(N)=O)C(=O)N[C@H](C(=O)N[C@@H](C)C(=O)N[C@@H](CCCNC(=N)N)C(=O)N[C@@H](CCCCN)C(=O)N[C@@H](CO)C(=O)N[C@H](C(=O)NCC(=O)NCC(=O)N[C@@H](CCCCN)C(=O)N[C@@H](C)C(=O)O)[C@@H](C)O)[C@@H](C)O [H3K4me1],Binding in words (histone peptide array),RDM15 Tudor domain [1],significant binding
same,Co-immunoprecipitation of H3K4me1,[2],not by mutated RDM15
same,Binding in words (ITC),RDM15 Tudor domain [3],bound much more strongly to the monomethylation state of H3K4
same,Co-immunoprecipitation of H3K4me1,RDM15,co-immunoprecipitated by wild-type RDM15
